In experiment [1] the test system is HS-PSS. In words: drug sensitivity score (DSS, CellTox-Green cytotoxicity, 72 h) (DSS (dimensionless)); higher = more cytotoxic; extreme values may be limits of the assay. Summed up:
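For 72 h at 37 °C, MPNST cell lines and primary human Schwann cells were exposed in 384-well plates to five 10-fold compound dilutions. CellTox-Green, added before seeding at a final 1:1000 dilution, gave fluorescence from DNA released by disrupted cells. Signals were scaled to vehicle and positive-control wells, cultures failing plate quality control were left out, and four-parameter logistic fits were applied. Relative IC50 and drug sensitivity score were derived from the fits, with IC50 censored at the top concentration.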

The subject of experiment [2] is HS-Sch-2. In words: drug sensitivity score (DSS, CellTiter-Glo viability, 72 h) (DSS (dimensionless)); higher = more sensitive; extreme values may be limits of the assay. The essentials:
(§1)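 After seeding 750–1000 cells per well of MPNST cell lines or primary human Schwann cells into 384-well plates preprinted with each compound at five concentrations in 10-fold steps, plates were kept 72 h at 37 °C, 5% CO2. Viability was read as CellTiter-Glo ATP luminescence relative to vehicle and positive-control wells, with duplicates averaged where present. The data were fitted with four-parameter logistic models. Drug sensitivity score and relative IC50, censored at the top concentration, derive from the fits, and percent inhibition refers to the top concentration.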

Experiment [3] has as its system YST-1. The experiment is described as above. Summed up:
as §1

Experiment [4] has as its system HS-PSS. The experiment is described as above. Summed up: as §1
Experiment [5] concerns HS-Sch-2. In words: % inhibition of CellTiter-Glo viability at highest tested concentration (72 h), relative to DMSO and benzethonium chloride controls; higher = more inhibition. Summed up: as §1
For experiment [6], the system named is YST-1. Described as above. The essentials:
as §1

Experiment [7] has as its system HS-PSS. The description is as above. The essentials: as §1

`CC(=O)N(O)CCCCCNC(=O)CCC(=O)N(O)CCCCCNC(=O)CCC(=O)N(O)CCCCCN` [Deferoxamine] (max concentration tested 10000 nM): the drug sensitivity score with HS-PSS [1] was found to be 1; in the experiment on HS-Sch-2 [2], 10.5; in the experiment with YST-1 [3], 6.36; in the experiment with HS-PSS [4] it was 8.62. The “% inhibition” value with HS-Sch-2 [5] was found to be 96.3%; in the experiment with YST-1 [6], 78.5%; in the experiment on HS-PSS [7] it was 89.5%.

With `CCN(CC)C(=S)SSC(=S)N(CC)CC` [Disulfiram] (max concentration tested 100000 nM), the drug sensitivity score was determined as 8.67 with HS-PSS [1], 27 in the experiment with HS-Sch-2 [2], 30.7 in the experiment with YST-1 [3] and 30.6 in the experiment with HS-PSS [4]. Besides, the “% inhibition” value with HS-Sch-2 [5], in the experiment with YST-1 [6] and in the experiment with HS-PSS [7] was 101% each time.

In the case of `C[C@H](Nc1ncnc2nc[nH]c12)c1cc2cccc(Cl)c2c(=O)n1-c1ccccc1` [Duvelisib] (max concentration tested 500 nM), the drug sensitivity score in the experiment with HS-PSS [1] amounted to 0.21; in the experiment on HS-Sch-2 [2] it was 0.22; in the experiment with YST-1 [3], 0.82; in the experiment on HS-PSS [4], 0. Besides, the figures for the “% inhibition” value in the experiment on HS-Sch-2 [5], with YST-1 [6] and with HS-PSS [7] were 13.6%, 19.5% and -0.01%, respectively.

As for `Cc1cc(Nc2cc(N3CCN(C)CC3)nc(/C=C/c3ccccc3)n2)n[nH]1` [ENMD-2076] (max concentration tested 10000 nM), the drug sensitivity score turned out to be 1.84 in the experiment on HS-PSS [1], 12.1 with HS-Sch-2 [2], 10.8 in the experiment on YST-1 [3] and 8.13 in the experiment on HS-PSS [4]. In addition, the “% inhibition” value in the experiment with HS-Sch-2 [5] came to 95.5%; in the experiment with YST-1 [6], 63.9%; in the experiment with HS-PSS [7], 70.5%.

With `Cc1cc(C)c(CNC(=O)c2cc(-c3ccc(CN4CCOCC4)cc3)cc3c2cnn3C2CCCC2)c(=O)[nH]1` [EPZ-5687] (max concentration tested 10000 nM), the drug sensitivity score in the experiment with HS-PSS [1], with HS-Sch-2 [2], in the experiment on YST-1 [3] and in the experiment with HS-PSS [4] was 0 throughout. Also, the “% inhibition” value in the experiment on HS-Sch-2 [5] is -5.4%; in the experiment on YST-1 [6], 1.37%; in the experiment with HS-PSS [7], -1.01%.

As for `COC(=O)N[C@@H](C)CNc1nccc(-c2cn(C(C)C)nc2-c2cc(Cl)cc(NS(C)(=O)=O)c2F)n1` [Encorafenib] (max concentration tested 1000 nM), the drug sensitivity score with HS-PSS [1] turned out to be 0; in the experiment on HS-Sch-2 [2] it was 0.12; in the experiment with YST-1 [3], 0; in the experiment on HS-PSS [4], 2.1. Further, the “% inhibition” value is 14.4% with HS-Sch-2 [5], 3.93% in the experiment with YST-1 [6] and 14% in the experiment on HS-PSS [7].

For the compound `c1cn2cc(-c3ccc4cn[nH]c4c3)nc(Nc3ccc(N4CCOCC4)cc3)c2n1` [Entospletinib] (max concentration tested 5000 nM), the drug sensitivity score with HS-PSS [1] came out at 0.89; in the experiment on HS-Sch-2 [2], 0.89; in the experiment on YST-1 [3] it was 0.45; in the experiment on HS-PSS [4], 0. For the same compound, the “% inhibition” value in the experiment with HS-Sch-2 [5] is -16%; in the experiment on YST-1 [6] it was 12%; with HS-PSS [7], -4.13%.

On to `NS(=O)(=O)NCCNc1nonc1/C(=N/O)Nc1ccc(F)c(Br)c1` [Epacadostat] (max concentration tested 10000 nM), for which the drug sensitivity score turned out to be 0 in the experiment with HS-PSS [1], 0.29 in the experiment on HS-Sch-2 [2], 0 with YST-1 [3] and 0 in the experiment with HS-PSS [4]. The “% inhibition” value in the experiment with HS-Sch-2 [5] came to 13.3%; in the experiment on YST-1 [6], 12.5%; in the experiment with HS-PSS [7] it was 6.08%.

As to `CCn1c(=O)c(-c2ccc(Cl)cc2Cl)cc2cnc(Nc3ccc(N4CCNCC4)c(F)c3)nc21` [FRAX486] (max concentration tested 5000 nM), the drug sensitivity score stood at 0 in the experiment with HS-PSS [1], 9.15 in the experiment with HS-Sch-2 [2], 0 with YST-1 [3] and 3.36 with HS-PSS [4]. Moreover, the results for the “% inhibition” value in the experiment with HS-Sch-2 [5], with YST-1 [6] and with HS-PSS [7] were 47.6%, -6.01% and 11.5%, respectively.

Take `Cc1cnc(Nc2ccc(OCCN3CCCC3)cc2)nc1Nc1cccc(S(=O)(=O)NC(C)(C)C)c1` [Fedratinib] (max concentration tested 10000 nM): the drug sensitivity score in the experiment on HS-PSS [1] came to 3.87; with HS-Sch-2 [2] it was 10.8; in the experiment with YST-1 [3], 8.29; with HS-PSS [4] it was 9.41. Moreover, the “% inhibition” value in the experiment with HS-Sch-2 [5] turned out to be 102%; in the experiment on YST-1 [6], 87.1%; with HS-PSS [7], 96.5%.

As to `CON(C)C(=O)N1N=C(c2cc(F)ccc2F)S[C@@]1(CCCN)c1ccccc1` [Filanesib] (max concentration tested 1000 nM), the drug sensitivity score in the experiment with HS-PSS [1] turned out to be 0; in the experiment with HS-Sch-2 [2], 29.1; in the experiment with YST-1 [3], 25.7; in the experiment on HS-PSS [4] it was 7.81. Moreover, the “% inhibition” value is 88.7% with HS-Sch-2 [5], 78.3% in the experiment with YST-1 [6] and 29% in the experiment on HS-PSS [7].

In the case of `O=C(Nc1nc2cccc(-c3ccc(CN4CCS(=O)(=O)CC4)cc3)n2n1)C1CC1` [Filgotinib] (max concentration tested 10000 nM), the drug sensitivity score worked out at 0 in the experiment on HS-PSS [1], 2.01 in the experiment with HS-Sch-2 [2], 1.97 with YST-1 [3] and 0.09 in the experiment with HS-PSS [4]. For the same compound, the “% inhibition” value in the experiment on HS-Sch-2 [5] was determined as 35.7%; with YST-1 [6] it was 45.2%; with HS-PSS [7], 14.3%.

As for `COc1cc(Nc2ncc(F)c(Nc3ccc4c(n3)N(COP(=O)(O)O)C(=O)C(C)(C)O4)n2)cc(OC)c1OC` [Fostamatinib] (max concentration tested 2500 nM), the drug sensitivity score with HS-PSS [1] was found to be 0; in the experiment on HS-Sch-2 [2], 2.96; with YST-1 [3], 4.22; in the experiment with HS-PSS [4] it was 2.95. Moreover, the “% inhibition” value in the experiment on HS-Sch-2 [5] is 36%; with YST-1 [6] it was 67.3%; with HS-PSS [7], 40.4%.

For `O=C(NOCCO)c1ccc2cncn2c1Nc1ccc(I)cc1F` [GDC-0623] (max concentration tested 2500 nM), the drug sensitivity score with HS-PSS [1] turned out to be 0.89; with HS-Sch-2 [2] it was 5.27; in the experiment on YST-1 [3] it was 0; in the experiment on HS-PSS [4] it was 3.76. The “% inhibition” value turned out to be 55% with HS-Sch-2 [5], 6.24% with YST-1 [6] and 37.1% with HS-PSS [7].

For the compound `Cn1nccc1Nc1nccc(-c2ccn([C@H](CO)c3ccc(Cl)c(F)c3)c(=O)c2)n1` [GDC-0994] (max concentration tested 10000 nM), the drug sensitivity score in the experiment on HS-PSS [1] was 0; in the experiment on HS-Sch-2 [2], 5.84; with YST-1 [3], 1.37; in the experiment on HS-PSS [4] it was 0. For the same compound, the “% inhibition” value was found to be 92.6% with HS-Sch-2 [5], 40% with YST-1 [6] and 8.18% in the experiment on HS-PSS [7].

As to `CNc1nc(Nc2cn(C(C)(C)C#N)nc2C)ncc1C(F)(F)F` [GNE-0877] (max concentration tested 1000 nM), the drug sensitivity score turned out to be 0 in the experiment on HS-PSS [1], 0 with HS-Sch-2 [2], 0 in the experiment on YST-1 [3] and 2.29 in the experiment with HS-PSS [4]. Besides, the “% inhibition” value in the experiment with HS-Sch-2 [5] was 5.3%; with YST-1 [6], -4.9%; in the experiment with HS-PSS [7], 23.4%.

For `CCNc1nc(Nc2cc(F)c(C(=O)N3CCOCC3)cc2OC)ncc1C(F)(F)F` [GNE-7915] (max concentration tested 1000 nM), the drug sensitivity score in the experiment on HS-PSS [1] amounted to 0; with HS-Sch-2 [2] it was 0.19; with YST-1 [3] it was 0; with HS-PSS [4], 0. Besides, the results for the “% inhibition” value in the experiment with HS-Sch-2 [5], in the experiment with YST-1 [6] and in the experiment on HS-PSS [7] were 12.4%, 0.1% and 8.52%, respectively.

For the origin of these results see the supplement of paper PMC5579334.
